Structures are written as SMILES.

In this assay the target is T1, Acetylcholinesterase (Rattus norvegicus, UniProt P37136).
T1 construct: Using the S1 fraction of a male Wistar rat cerebral cortex homogenate as a source of cholinesterase; from tissue; host or cells: male Wistar rat cerebral cortex homogenate, S1 fraction
T1 sequence (P37136 32-614): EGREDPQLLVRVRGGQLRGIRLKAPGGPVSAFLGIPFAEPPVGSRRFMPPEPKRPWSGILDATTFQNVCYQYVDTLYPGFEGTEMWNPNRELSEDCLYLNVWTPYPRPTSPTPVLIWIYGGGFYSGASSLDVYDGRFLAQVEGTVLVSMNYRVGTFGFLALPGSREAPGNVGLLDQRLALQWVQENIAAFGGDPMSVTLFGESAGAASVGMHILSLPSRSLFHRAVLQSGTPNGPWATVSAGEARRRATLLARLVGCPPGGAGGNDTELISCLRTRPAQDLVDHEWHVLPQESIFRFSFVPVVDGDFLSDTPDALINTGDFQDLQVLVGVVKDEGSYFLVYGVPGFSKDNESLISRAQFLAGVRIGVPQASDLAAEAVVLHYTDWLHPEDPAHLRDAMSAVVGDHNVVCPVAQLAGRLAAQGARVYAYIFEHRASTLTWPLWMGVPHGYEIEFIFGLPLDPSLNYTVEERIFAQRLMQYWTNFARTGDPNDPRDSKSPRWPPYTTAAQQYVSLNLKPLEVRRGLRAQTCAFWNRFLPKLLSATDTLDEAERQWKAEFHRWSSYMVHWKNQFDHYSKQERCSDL
In words: cholinesterase inhibitory activity using (acetyl-[^3 H])-acetylcholine, S1 fraction of rat cerebral cortex homogenate. It counts as biochemical, male Wistar rat. The settings on record: 30 min incubation.
Procedure: The cholinesterase inhibitory activity of the compound of the present invention was tested, using (acetyl-[^3 H])-acetylcholine. Using the S1 fraction of a male Wistar rat cerebral cortex homogenate as a source of cholinesterase, (acetyl-[^3 H])-acetylcholine, as a substrate, and the test compound, as a sample, were incubated for 30 minutes. After the reaction was terminated, a toluene scintillator was added and the reaction mixture was shaken to migrate the [^3 H]-acetic acid resulting from the reaction to the toluene layer, where radioactivity was counted using a liquid scintillation counter to determine the cholinesterase inhibitory activity.
The sample's cholinesterase inhibitory activity was expressed by 50% inhibitory concentration (IC50).
Regarding `COc1ccc(C(=O)N2Cc3ccccc3-c3ccc(C(=O)CCN4CCN(Cc5ccccc5)CC4)cc3C2)cc1` [34-5], half-maximal inhibition (IC50) required 31.6 nM.
Then `O=C(CCN1CCN(Cc2ccccc2)CC1)c1cc2c3c(c1)CC(=O)N3CCCC2` [17-3], with 17.2 nM.
The same measure for `CN1CC2CCCc3c(C(=O)CCC4CCN(Cc5ccccc5)CC4)ccc1c32` (stereo not shown) [16-1]: 154 nM; for `O=C(CCN1CCN(Cc2ccccc2)CC1)c1cc2c3c(c1)CCN3C(=O)CC2` [17-1]: 3 nM; for `O=C(CCC1CCN(Cc2ccccc2O)CC1)c1cc2c3c(c1)CCN3C(=O)CC2` [30-58]: 0.12 nM.
The compound `O=C(CCN1CCN(Cc2ccccc2Cl)CC1)c1cc2c3c(c1)CC(=O)N3CCC2` [30-3] came in with a half-inhibitory concentration (IC50) of 10.9 nM.
Take `O=C(CCN1CCN(Cc2ccccc2)CC1)c1cc2c3c(c1)CC(=O)N3CCC2` [17-2]: the half-inhibitory concentration (IC50) stood at 7.6 nM. The IC50 values of the last two compounds are within 1.5-fold of each other.
For `O=C(CCN1CCN(Cc2cccc(F)c2)CC1)c1cc2c3c(c1)CC(=O)N3CCC2` [30-11], half-maximal inhibition (IC50) required 16.9 nM.
In the case of `CC(=O)N1Cc2ccccc2-c2ccc(C(=O)CCN3CCN(Cc4ccccc4)CC3)cc2C1` [34-3], the IC50 is 171 nM.
Then `Cc1ccccc1CN1CCC(CCC(=O)c2cc3c4c(c2)CCN4C(=O)CC3)CC1` [30-45], with 0.304 nM.
Compound `Cc1ccccc1CN1CCN(CCC(=O)c2cc3c4c(c2)CCN4C(=O)CC3)CC1` [30-18] had an IC50 of 24.9 nM.
Then `O=C(CCC1CCN(Cc2ccc([N+](=O)[O-])cc2)CC1)c1cc2c3c(c1)CCN3C(=O)CC2` [30-53], with 25.4 nM; and `O=C(CCN1CCN(Cc2ccc(F)cc2)CC1)c1cc2c3c(c1)CCN3C(=O)CC2` [30-26], with 4.4 nM.
Then `Cc1ccc(CN2CCC(CCC(=O)c3cc4c5c(c3)CCN5C(=O)CC4)CC2)cc1` [30-47], with 19.5 nM; and `O=C(CCC1CCN(Cc2ccccc2)CC1)c1cc2c3c(c1)CCN3C(=O)CC2` [30-38], with 0.18 nM; and `O=C(CCN1CCN(Cc2cccc([N+](=O)[O-])c2)CC1)c1cc2c3c(c1)CC(=O)N3CCC2` [30-35], with 67.9 nM.
Then `O=C(CCN1CCN(Cc2ccc(F)cc2)CC1)c1cc2c3c(c1)CC(=O)N3CCC2` [30-12], with 23.9 nM.
The compound `COc1ccc(CN2Cc3ccccc3-c3ccc(C(=O)CCN4CCN(Cc5ccccc5)CC4)cc3C2)cc1` [34-2] displayed an IC50 of 20 nM.
`CN1c2ccc(C(=O)CCC3CCN(Cc4ccccc4)CC3)cc2C2CCCCC21` (stereo not shown) [37-4]: half-maximal inhibition (IC50) was put at 136 nM. This IC50 lies about 6.8-fold higher than the previous one.
The same measure for `COc1ccccc1CN1CCN(CCC(=O)c2cc3c4c(c2)CCN4C(=O)CC3)CC1` [30-32]: 91.1 nM.
Then `O=CN1Cc2cc(C(=O)CCN3CCN(Cc4ccccc4)CC3)ccc2CCc2ccccc21` [17-10], with 96.8 nM.
Then `O=C(CCC1CCN(Cc2cccc(O)c2)CC1)c1cc2c3c(c1)CCN3C(=O)CC2` [30-59], with 1.12 nM.
With `O=C(CCC1CCN(Cc2ccc(F)cc2)CC1)c1cc2c3c(c1)CCN3C(=O)CC2` [30-41], half-maximal inhibition (IC50) required 0.47 nM.
Then `Cc1ccc(C)c(CN2CCC(CCC(=O)c3cc4c5c(c3)CCN5C(=O)CC4)CC2)c1` [30-56], with 18.3 nM; and `O=C(CCN1CCN(Cc2ccccc2)CC1)c1cc2c3c(c1)CCC(=O)N3CCC2` [17-6], with 15.1 nM; and `O=CN1Cc2cc(C(=O)CCN3CCN(Cc4ccccc4)CC3)ccc2Cc2ccccc21` [17-7], with 33 nM.
In the case of `Cc1ccc(CN2CCC(CCC(=O)c3cc4c5c(c3)CCN5C(=O)CC4)CC2)c(C)c1` [30-54], the IC50 turned out to be 60.9 nM.
Then `CCC(=O)N1CC2CCCc3c(C(=O)CCC4CCN(Cc5ccccc5)CC4)ccc1c32` (stereo not shown) [20-1], with 182 nM; and `COc1ccccc1CN1CCN(CCC(=O)c2cc3c4c(c2)CC(=O)N4CCC3)CC1` [30-13], with 130 nM.
The same measure for `O=C(CCN1CCN(Cc2cccc([N+](=O)[O-])c2)CC1)c1cc2c3c(c1)CCN3C(=O)CC2` [30-29]: 29.3 nM; for `CC1CC(=O)N2CCc3cc(C(=O)CCN4CCN(Cc5ccccc5)CC4)cc1c32` (stereo not shown) [17-4]: 9.5 nM.

For the origin of these results see US5686466A, “Tricyclic condensed heterocyclic compounds their production and use” (priority 1993, dated 1997).
